# Measurements published in PubChem BioAssay (NCI).
#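 The concentration for 50% growth inhibition is given as GI50. The concentration for full growth arrest is given as TGI.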
# Key:
# Test in all cases: NCI tumour cell line growth inhibition, 384-well format
# SNB-19 CNS = system: SNB-19 CNS
# TK-10 renal = system: TK-10 renal
# U251 glioblastoma = system: U251 glioblastoma
# HS 578T breast = system: HS 578T breast
# MDA-MB-231 breast = system: MDA-MB-231 breast
# SR leukemia = system: SR leukemia
# HCC-2998 colon = system: HCC-2998 colon
# HOP-62 NSCLC = system: HOP-62 NSCLC
# NCI/ADR-RES ovarian = system: NCI/ADR-RES ovarian
# CAKI-1 renal = system: CAKI-1 renal
# SK-MEL-28 melanoma = system: SK-MEL-28 melanoma
# ACHN renal = system: ACHN renal
# SF-268 CNS = system: SF-268 CNS
# BT-549 breast = system: BT-549 breast
# OVCAR-5 ovarian = system: OVCAR-5 ovarian
# HL-60(TB) leukemia = system: HL-60(TB) leukemia
# SF-295 CNS = system: SF-295 CNS
# NCI-H23 lung = system: NCI-H23 lung
# MCF7 breast = system: MCF7 breast
# SW-620 colon = system: SW-620 colon
# COLO 205 colon = system: COLO 205 colon
# NCI-H226 lung = system: NCI-H226 lung
# A549 NSCLC = system: A549 NSCLC
# SF-539 CNS = system: SF-539 CNS
# SN12C renal = system: SN12C renal
# KM12 colon = system: KM12 colon
# SK-MEL-5 melanoma = system: SK-MEL-5 melanoma
# K-562 leukemia = system: K-562 leukemia
# HOP-92 NSCLC = system: HOP-92 NSCLC
# MDA-MB-468 breast = system: MDA-MB-468 breast
# UACC-257 melanoma = system: UACC-257 melanoma
# MDA-MB-435 melanoma = system: MDA-MB-435 melanoma
# T-47D breast = system: T-47D breast
# RXF 393 renal = system: RXF 393 renal
# HCT-15 colon = system: HCT-15 colon
# HCT-116 colon = system: HCT-116 colon
# LOX IMVI melanoma = system: LOX IMVI melanoma
# OVCAR-3 ovarian = system: OVCAR-3 ovarian
# DU-145 prostate = system: DU-145 prostate
# MALME-3M melanoma = system: MALME-3M melanoma
# NCI-H460 NSCLC = system: NCI-H460 NSCLC
# OVCAR-8 ovarian = system: OVCAR-8 ovarian
# A498 renal = system: A498 renal
# SK-OV-3 ovarian = system: SK-OV-3 ovarian
# UO-31 renal = system: UO-31 renal
# EKVX NSCLC = system: EKVX NSCLC
# 786-0 renal = system: 786-0 renal
# HT29 colon = system: HT29 colon
# MOLT-4 leukemia = system: MOLT-4 leukemia
# CCRF-CEM leukemia = system: CCRF-CEM leukemia
# IGROV1 ovarian = system: IGROV1 ovarian
# NCI-H522 lung = system: NCI-H522 lung
# M14 melanoma = system: M14 melanoma
# PC-3 prostate = system: PC-3 prostate
# SNB-75 CNS = system: SNB-75 CNS
# OVCAR-4 ovarian = system: OVCAR-4 ovarian
# RPMI-8226 leukemia = system: RPMI-8226 leukemia
# NCI-H322M lung = system: NCI-H322M lung
smiles,measurement,setting,value
O=C(Nc1cc(F)c(F)cc1C(=O)O)c1ccc(-n2ccnc2)nn1,GI50,SNB-19 CNS,> 100 µM
same,TGI,SNB-19 CNS,> 100 µM
same,GI50,TK-10 renal,> 100 µM
same,TGI,TK-10 renal,> 100 µM
same,GI50,U251 glioblastoma,> 100 µM
same,TGI,U251 glioblastoma,> 100 µM
same,GI50,HS 578T breast,> 100 µM
same,TGI,HS 578T breast,> 100 µM
same,GI50,MDA-MB-231 breast,> 100 µM
same,TGI,MDA-MB-231 breast,> 100 µM
same,GI50,SR leukemia,23.3 µM
same,TGI,SR leukemia,49.7 µM
same,GI50,HCC-2998 colon,> 100 µM
same,TGI,HCC-2998 colon,> 100 µM
same,GI50,HOP-62 NSCLC,> 100 µM
same,TGI,HOP-62 NSCLC,> 100 µM
same,GI50,NCI/ADR-RES ovarian,> 100 µM
same,TGI,NCI/ADR-RES ovarian,> 100 µM
same,GI50,CAKI-1 renal,> 100 µM
same,TGI,CAKI-1 renal,> 100 µM
same,GI50,SK-MEL-28 melanoma,> 100 µM
same,TGI,SK-MEL-28 melanoma,> 100 µM
same,GI50,ACHN renal,> 100 µM
same,TGI,ACHN renal,> 100 µM
same,GI50,SF-268 CNS,> 100 µM
same,TGI,SF-268 CNS,> 100 µM
same,GI50,BT-549 breast,> 100 µM
same,TGI,BT-549 breast,> 100 µM
same,GI50,OVCAR-5 ovarian,> 100 µM
same,TGI,OVCAR-5 ovarian,> 100 µM
same,GI50,HL-60(TB) leukemia,> 100 µM
same,TGI,HL-60(TB) leukemia,> 100 µM
same,GI50,SF-295 CNS,> 100 µM
same,TGI,SF-295 CNS,> 100 µM
same,GI50,NCI-H23 lung,> 100 µM
same,TGI,NCI-H23 lung,> 100 µM
same,GI50,MCF7 breast,> 100 µM
same,TGI,MCF7 breast,> 100 µM
same,GI50,SW-620 colon,> 100 µM
same,TGI,SW-620 colon,> 100 µM
same,GI50,COLO 205 colon,> 100 µM
same,TGI,COLO 205 colon,> 100 µM
same,GI50,NCI-H226 lung,> 100 µM
same,TGI,NCI-H226 lung,> 100 µM
same,GI50,A549 NSCLC,> 100 µM
same,TGI,A549 NSCLC,> 100 µM
same,GI50,SF-539 CNS,> 100 µM
same,TGI,SF-539 CNS,> 100 µM
same,GI50,SN12C renal,> 100 µM
same,TGI,SN12C renal,> 100 µM
same,GI50,KM12 colon,> 100 µM
same,TGI,KM12 colon,> 100 µM
same,GI50,SK-MEL-5 melanoma,57.9 µM
same,TGI,SK-MEL-5 melanoma,> 100 µM
same,GI50,K-562 leukemia,50.6 µM
same,TGI,K-562 leukemia,> 100 µM
same,GI50,HOP-92 NSCLC,> 100 µM
same,TGI,HOP-92 NSCLC,> 100 µM
same,GI50,MDA-MB-468 breast,29.2 µM
same,TGI,MDA-MB-468 breast,> 100 µM
same,GI50,UACC-257 melanoma,> 100 µM
same,TGI,UACC-257 melanoma,> 100 µM
same,GI50,MDA-MB-435 melanoma,> 100 µM
same,TGI,MDA-MB-435 melanoma,> 100 µM
same,GI50,T-47D breast,> 100 µM
same,TGI,T-47D breast,> 100 µM
same,GI50,RXF 393 renal,> 100 µM
same,TGI,RXF 393 renal,> 100 µM
same,GI50,HCT-15 colon,> 100 µM
same,TGI,HCT-15 colon,> 100 µM
same,GI50,HCT-116 colon,> 100 µM
same,TGI,HCT-116 colon,> 100 µM
same,GI50,LOX IMVI melanoma,> 100 µM
same,TGI,LOX IMVI melanoma,> 100 µM
same,GI50,OVCAR-3 ovarian,> 100 µM
same,TGI,OVCAR-3 ovarian,> 100 µM
same,GI50,DU-145 prostate,> 100 µM
same,TGI,DU-145 prostate,> 100 µM
same,GI50,MALME-3M melanoma,> 100 µM
same,TGI,MALME-3M melanoma,> 100 µM
same,GI50,NCI-H460 NSCLC,> 100 µM
same,TGI,NCI-H460 NSCLC,> 100 µM
same,GI50,OVCAR-8 ovarian,> 100 µM
same,TGI,OVCAR-8 ovarian,> 100 µM
same,GI50,A498 renal,> 100 µM
same,TGI,A498 renal,> 100 µM
same,GI50,SK-OV-3 ovarian,> 100 µM
same,TGI,SK-OV-3 ovarian,> 100 µM
same,GI50,UO-31 renal,> 100 µM
same,TGI,UO-31 renal,> 100 µM
same,GI50,EKVX NSCLC,> 100 µM
same,TGI,EKVX NSCLC,> 100 µM
same,GI50,786-0 renal,> 100 µM
same,TGI,786-0 renal,> 100 µM
same,GI50,HT29 colon,> 100 µM
same,TGI,HT29 colon,> 100 µM
same,GI50,MOLT-4 leukemia,> 100 µM
same,TGI,MOLT-4 leukemia,> 100 µM
same,GI50,CCRF-CEM leukemia,> 100 µM
same,TGI,CCRF-CEM leukemia,> 100 µM
same,GI50,IGROV1 ovarian,> 100 µM
same,TGI,IGROV1 ovarian,> 100 µM
same,GI50,NCI-H522 lung,65.1 µM
same,TGI,NCI-H522 lung,> 100 µM
same,GI50,M14 melanoma,> 100 µM
same,TGI,M14 melanoma,> 100 µM
same,GI50,PC-3 prostate,> 100 µM
same,TGI,PC-3 prostate,> 100 µM
same,GI50,SNB-75 CNS,> 100 µM
same,TGI,SNB-75 CNS,> 100 µM
same,GI50,OVCAR-4 ovarian,> 100 µM
same,TGI,OVCAR-4 ovarian,> 100 µM
same,GI50,RPMI-8226 leukemia,> 100 µM
same,TGI,RPMI-8226 leukemia,> 100 µM
same,GI50,NCI-H322M lung,> 100 µM
same,TGI,NCI-H322M lung,> 100 µM
